Columns and labels:
[1] = test system: duck salad (Heteranthera limosa); assay: Test C flooded paddy test; assay type: in vivo; details: Flood, scale 0 to 100
In short: (§1)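 Plants were grown to the 2-leaf stage in a flooded paddy, treated, and kept in a greenhouse with untreated controls for 12 to 14 days. Injury was then scored visually against controls on a 0–100 scale, where 0 means no effect and 100 complete control.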

[2] = test system: umbrella sedge (Cyperus difformis); assay: Test C flooded paddy test; assay type: in vivo; details: Flood, scale 0 to 100
In short: as §1

[3] = test system: barnyardgrass (Echinochloa crus-galli); assay: Test C flooded paddy test; assay type: in vivo; details: Flood
In short: as §1

[4] = test system: rice (Oryza sativa); assay: Test C flooded paddy test; assay type: in vivo; details: Flood, scale 0 to 100
In short: as §1

[5] = 500 g ai/ha, scale 0 to 100 (0 no effect, 100 complete control)

SMILES | melting point [°C] | Plant response rating, Ducksalad ([1]; 62 g ai/ha) | Plant response rating, Ducksalad ([1]; 125 g ai/ha) | Plant response rating, Ducksalad ([1]; 250 g ai/ha) | Plant response rating, Ducksalad ([1]; 500 g ai/ha) | Plant response rating, Sedge, Umbrella ([2]; 62 g ai/ha) | Plant response rating, Sedge, Umbrella ([2]; 125 g ai/ha) | Plant response rating, Sedge, Umbrella ([2]; 250 g ai/ha) | Plant response rating, Sedge, Umbrella ([2]; 500 g ai/ha) | Plant response rating, Barnyardgrass ([3]; 62 g ai/ha, scale 0 to 100) | Plant response rating, Barnyardgrass ([3]; 125 g ai/ha, scale 0 to 100) | Plant response rating, Barnyardgrass ([3]; 250 g ai/ha, scale 0 to 100) | Plant response rating, Barnyardgrass [3, 5] | Plant response rating, Rice ([4]; 62 g ai/ha) | Plant response rating, Rice ([4]; 125 g ai/ha) | Plant response rating, Rice ([4]; 250 g ai/ha) | Plant response rating, Rice ([4]; 500 g ai/ha)
CCOC(=O)c1nc(C2CC2)nc(N)c1Cl [Compound 4, ethyl 6-amino-5-chloro-2-cyclopropyl-4-pyrimidinecarboxylate] | 87 to 89 | 70 | 80 | 90 | 100 | 0 | 30 | 65 | 75 | 0 | 60 | 65 | 85 | 0 | 40 | 75 | 80
Nc1nc(C2CC2)nc(C(=O)OCc2ccccc2)c1Br [Compound 22, phenylmethyl 6-amino-5-bromo-2-cyclopropyl-4-pyrimidinecarboxylate] | 129 to 131 | 30 | 60 | 90 | 95 | 0 | 30 | 75 | 95 | 0 | 0 | 40 | 70 | 20 | 20 | 40 | 60
